Earlier results, collected in patent US11260097B2, “Immunomodulatory composition to treat and/or prevent COVID-19 illness” (priority 2020, dated 2022).

Legend:
[1] = in vivo
[2] = high doses

C[C@@H]1O[C@@H](O[C@H]2[C@H](O[C@H]3CC[C@@]4(C)[C@@H](CC[C@]5(C)[C@@H]4CC=C4[C@@H]6CC(C)(C)CC[C@]6(C(=O)O)CC[C@]45C)[C@]3(C)CO)OC[C@H](O)[C@@H]2O)[C@H](O)[C@H](O)[C@H]1O [alpha-heridin, alpha-hederin]
water solubility: water soluble

glycophosphopeptical [AM3]
onset of clinical improvement in cough, sputum and shortness of breath [1]: 3 days

Nigellidine
solubility in acid media: soluble in acid media

CC1=CC(=O)C(C(C)C)=CC1=O [thymoquinone, 2-isopropyl-5-methyl-1,4benzoquinone]
water solubility: poor water solubility
toxicity [2]: toxicity at high doses
